Source: patent publication US10266482B2, “Long-term memory inducing agent” (NATIONAL UNIVERSITY CORPORATION TOKYO MEDICAL AND DENTAL …, priority 2017, dated 2019)
Blank lines part the entries; values can stand above or below the molecule they belong to.

What was measured:
[1] = tested on: young crickets; test: AMK-related synthetic compounds inducing long-term memories in young crickets; type: in vivo, Gryllus bimaculatus; details: 3 μl of 1 μg/ml to the brain 20 minutes after single-time training
Experimental: Male (young) crickets about one week old following molting into their adult stage were used. Each of the crickets was placed in a 100 ml beaker three days before the experiment, and deprived of water for 2-3 days to enhance the desire of taking water. As the feed, about 10 pieces of insect feed were placed into the beaker.
In the same manner as “1.2, Olfactory associative conditioning” in Example 1, learning/training for smell and reward associative conditioning was conducted.
In the same manner as “1.3. Smell preference test” in Example 1, a test of smell preference was carried out.
As drugs, the AMK-related synthetic compounds (Compounds 1-10) synthesized in Example 2 above were used. For all of the drugs, 1 mg of the drug was initially dissolved in 100 μl of DMSO, and then diluted with physiological saline for crickets that was 10000 times the amount of the drug solution (final concentration: 1 μg/ml). In the administration experiments, 3 μl was administered to the brain via an aperture opened through a simple eye of the head using a 10-μl syringe.
Processing was conducted in the same manner as “1.5. Statistical processing” in Example 1.

[2] = tested on: young crickets; test: Olfactory associative learning test in young crickets (single-time training, memory a day after); type: in vivo, Gryllus bimaculatus; details: for long-term memory formation a day after the training: 3 μl to the brain
Experimental: Male crickets about one week old (young) or three week old (aged) following molting into adult forms were used. Each of the crickets was placed into a 100 ml beaker three days before the experiment, and deprived of water for 2-3 days to enhance the desire of taking water. As the feed, about 10 pieces of insect feed were placed into the beaker.
A 1-ml syringe was used for smell and reward associative conditioning upon learning/training. The syringe contained water as the reward while a piece of paper (3 mm×3 mm) perfumed with peppermint essence was pierced into the needle to about 1 cm from the tip thereof. In this learning/training, the filter paper on the needle was brought near the antennae of the cricket to allow it to smell for 3 seconds and then a drop of water was put out from the tip of the needle and applied to the mouth of the cricket. When the associative conditioning was conducted for four times, the conditionings were conducted at intervals of 5 minutes.
Smell preference was examined by placing each cricket into a test arena. The arena consisted of a “standby chamber” and a “test chamber”. The floor of the “test chamber” had two holes each with a diameter of 4 cm which were communicated with two smell sources. The smell source was a plastic pot containing filter paper perfumed with essence of a smell (peppermint or vanilla) and covered with a gauze lid. In the preference test, each cricket was placed into the test chamber and allowed to walk freely for 4 minutes to search for the two smell sources. Two minutes after the start of the test, a rotary board having the smell sources was rotated to reverse the positions of the vanilla and the peppermint smells. During the test, the time the cricket spent placing its mouth to the gauze of the smell source was measured as a visiting time to the smell source, and the ratio of the visiting times of the two types of smells (PI value: preference index) was calculated according to the following formula to assess the relative preference to the mint smell. PI value=Tp/(Tp+Tv)×100 • Tp: Searching time for smell associated with the reward (peppermint) • Tv: Searching time for smell not associated with the reward (vanilla)
If the preferences for the two smells are equivalent, PI will be 50. Since crickets inherently prefer vanilla smell over peppermint smell, an average PI value prior to the learning/training is usually 25-35, The preference test was conducted before and after the learning/training to examine whether preference for the smell changes due to the learning/training.
As drugs, melatonin, N(1)-acetyl-N(2)-formyl-5-methoxykynuramine (AFMK), N(1)-acetyl-5-methoxykynuramine (AMK), 6-Hydroxymelatonin (6-HM), L-kynurenine, kynuramine, 8-Bromoguanoine 3′,5′-cyclic monophosphate sodium salt (8 br-cGMP) and cycloheximide (CHX) were used. Melatonin, 6-HM, kynurenine, kynuramine and 8br-cGMP were purchased from SIGMA Aldrich, AFMK was purchased from Cayman Chemical, AMK was purchased from Toronto Research Chemicals and CHX was purchased from Wako Pure Chemical Industries. The drugs other than 8br-cGMP and CHX were first dissolved in ethanol and then diluted with physiological saline for crickets to the respective concentrations. In the administration experiment, 3 μl was administered using a 10-μl syringe to the brain via an aperture opened through a simple eye of the head.
PI values were tested before the training and a day after the training in the same group by a Wilcoxon's-test.

[3] = tested on: young mice; test: Object recognition test for young mice (melatonin and melatonin metabolites); type: in vivo, ICR mice; details: i.p. 60 minutes after one one-minute acquisition trial, test trial 24 hours later
Experimental: Two-month-old male ICR mice (young mice) were used. The rearing room was kept at 22° C. at cycles of 12 hours of light period/12 hours of dark period, and feed and drinking water were given freely. All of the experiments were conducted during the latter 6 hours of the light period.
Melatonin (MEL), N(1)-acetyl-N(2)-formyl-5-methoxykynuramine (AFMK), and N(1)-acetyl-5-methoxykynuramine (AMK) were used as drugs. Melatonin was purchased from SIGMA Aldrich, AFMK was purchased from Cayman Chemical, and AMK was purchased from Toronto Research Chemicals. AFMK and AMK were diluted with physiological saline and intraperitoneally administered at a dosage of 0.01 mg/kg bw, 0.1 mg/kg bw or 1.0 mg/kg bw. MEL was diluted with physiological saline containing 1 vol % ethanol, and intraperitoneally administered at a dosage of 1.0 mg/kg bw or 5.0 mg/kg bw. As controls, physiological saline or physiological saline containing 1 vol % ethanol was intraperitoneally administered.
Test was conducted in the same manner as “5.3 Object recognition test” in Example 5.
Processing was conducted in the same manner as “5.4 Statistical processing” in Example 5.

[4] = tested on: aged crickets; test: Olfactory associative learning test in aged crickets (age-related memory disorder, training four times); type: in vivo, Gryllus bimaculatus; details: 500 μM, 3 μl, 20 minutes before training for four times
Experimental: Male crickets about one week old (young) or three week old (aged) following molting into adult forms were used. Each of the crickets was placed into a 100 ml beaker three days before the experiment, and deprived of water for 2-3 days to enhance the desire of taking water. As the feed, about 10 pieces of insect feed were placed into the beaker. A 1-ml syringe was used for smell and reward associative conditioning upon learning/training. The syringe contained water as the reward while a piece of paper (3 mm×3 mm) perfumed with peppermint essence was pierced into the needle to about 1 cm from the tip thereof. In this learning/training, the filter paper on the needle was brought near the antennae of the cricket to allow it to smell for 3 seconds and then a drop of water was put out from the tip of the needle and applied to the mouth of the cricket. When the associative conditioning was conducted for four times, the conditionings were conducted at intervals of 5 minutes. Smell preference was examined by placing each cricket into a test arena. The arena consisted of a “standby chamber” and a “test chamber”. […] The smell source was a plastic pot containing filter paper perfumed with essence of a smell (peppermint or vanilla) and covered with a gauze lid. In the preference test, each cricket was placed into the test chamber and allowed to walk freely for 4 minutes to search for the two smell sources. Two minutes after the start of the test, a rotary board having the smell sources was rotated to reverse the positions of the vanilla and the peppermint smells. During the test, the time the cricket spent placing its mouth to the gauze of the smell source was measured as a visiting time to the smell source, and the ratio of the visiting times of the two types of smells (PI value: preference index) was calculated according to the following formula to assess the relative preference to the mint smell. PI value=Tp/(Tp+Tv)×100 • Tp: Searching time for smell associated with the reward (peppermint) • Tv: Searching time for smell not associated with the reward (vanilla) If the preferences for the two smells are equivalent, PI will be 50. Since crickets inherently prefer vanilla smell over peppermint smell, an average PI value prior to the learning/training is usually 25-35, The preference test was conducted before and after the learning/training to examine whether preference for the smell changes due to the learning/training. […] Melatonin, 6-HM, kynurenine, kynuramine and 8br-cGMP were purchased from SIGMA Aldrich, AFMK was purchased from Cayman Chemical, AMK was purchased from Toronto Research Chemicals and CHX was purchased from Wako Pure Chemical Industries. The drugs other than 8br-cGMP and CHX were first dissolved in ethanol and then diluted with physiological saline for crickets to the respective concentrations. In the administration experiment, 3 μl was administered using a 10-μl syringe to the brain via an aperture opened through a simple eye of the head. PI values were tested before the training and a day after the training in the same group by a Wilcoxon's-test.

[5] = 5 μM, 20 minutes after single-time training

SMILES: CCC(=O)NCCC(=O)c1cc(OC)ccc1N [Compound 2, N-[3-(2-amino-5-methoxyphenyl)-3-oxopropyl]-propionamide]
- effect in inducing long-term memory compared with AMK [1]: superior effects over AMK

SMILES: COc1ccc(N)c(C(=O)CCNC(=O)c2ccccc2)c1 [Compound 3, N-[3-(2-amino-5-methoxyphenyl)-3-oxopropyl]-benzamide]
- effect in inducing long-term memory compared with AMK [1]: superior effects over AMK

- melting point: 134.5 to 136 °C
SMILES: COc1ccc(N)c(C(=O)CCNC(=O)c2ccccc2OC)c1 [Compound 5, N-[3-(2-amino-5-methoxyphenyl)-3-oxopropyl]-2-methoxybenzamide]

- melting point: 113.5 to 114.5 °C
SMILES: COc1ccc(N)c(C(=O)CCNC(=O)c2ccc3ccccc3c2)c1 [Compound 6, N-[3-(2-amino-5-methoxyphenyl)-3-oxopropyl]-2-naphthamide]
- effect in inducing long-term memory after one day [1]: did not show significant difference with the number of individuals used this time but they showed a tendency to induce long-term memories

SMILES: COc1cc2c(CCNC(C)=O)c[nH]c2cc1O [Compound 6-HM, 6-Hydroxymelatonin, reference compound]
- long-term memory formation a day after the training [2, 5]: a long-term memory was not formed
- long-term memory formation a day after the training ([2]; 5 μM, 20 minutes before single-time training): a long-term memory was not formed

- melting point: 114 to 115.5 °C
SMILES: COc1ccc(N)c(C(=O)CCNC(=O)c2ccccn2)c1 [Compound 7, N-[3-(2-amino-5-methoxyphenyl)-3-oxopropyl]-2-picolinamide]
- effect in inducing long-term memory compared with AMK [1]: superior effects over AMK

- melting point: 121 to 122 °C
SMILES: CC(=O)NCCC(=O)c1cc(Cl)ccc1N [Compound 8, N-[3-(2-amino-5-chlorophenyl)-3-oxopropyl]-acetamide]
- effect in inducing long-term memory after one day [1]: did not show significant difference with the number of individuals used this time but they showed a tendency to induce long-term memories

SMILES: Nc1nc2c(nc(Br)n2[C@@H]2O[C@@H]3COP(=O)([O-])O[C@H]3[C@H]2O)c(=O)[nH]1.[Na+] [Compound 8br-cGMP, 8-Bromoguanoine 3′,5′-cyclic monophosphate sodium salt, reference compound]
- long-term memory formation a day after the training ([2]; 200 μM, 20 minutes after single-time training): did not have the effect of inducing long-term memory
- long-term memory formation a day after the training ([2]; 200 μM, 20 minutes before single-time training): confirmed

SMILES: CC(=O)NCCC(=O)c1ccccc1N [Compound 9, N-[3-(2-aminophenyl)-3-oxopropyl]acetamide]
- effect in inducing long-term memory compared with AMK [1]: superior effects over AMK

SMILES: COc1ccc(NC=O)c(C(=O)CCNC(C)=O)c1 [Compound 10, N-[3-(2-formylamino-5-methoxyphenyl)-3-oxopropyl]acetamide]
- administration concentration sufficient to form long-term memory ([2]; 3 μl to the brain 20 minutes after single-time training): 1 µM
- concentration at which the effect of inducing long-term memories was found [3]: 1.0 mg/kg bw

- melting point: 143 to 145 °C
SMILES: COc1ccc(NC(C)=O)c(C(=O)CCNC(C)=O)c1 [Compound 13, N-[3-(2-acetylamino-5-methoxyphenyl)-3-oxopropyl]acetamide]

SMILES: NCCC(=O)c1ccccc1N [Compound 15, 3-amino-1-(2-aminophenyl)-1-propanone]
- long-term memory formation a day after the training [2, 5]: the long-term memories were formed

SMILES: Nc1ccccc1C(=O)CC(N)C(=O)O (stereo not drawn) [Compound 16, 3-[(2-aminophenyl)carbonyl]-2-aminopropionic acid]
- long-term memory formation a day after the training [2, 5]: the long-term memories were formed

SMILES: N[C@@H](CCC(=O)N[C@@H](CS)C(=O)NCC(=O)O)C(=O)O [glutathione]
- improvement in an age-related memory disorder [4]: no improvement

SMILES: O=C1O[C@H]([C@@H](O)CO)C(O)=C1O [vitamin C]
- improvement in an age-related memory disorder [4]: no improvement
